Patent US20050124618A1, “Methods of modulating angiogenesis and cancer cell proliferation” (priority 2003, published 2005)
“Also recorded” adds a separate entry of the source.

Tests used:
9L gliosarcoma tumors = assay: Growth of 9L gliosarcoma brain tumors in rats (tumor volume); format: in vivo, rat
Protocol: Tumor Implantation: Before implantation, 90% confluent 9L cells were trypsinized and centrifuged. The cell pellet was resuspended in DMEM+10% FBS and counted using a hemocytometer. The concentration of the 9L cells was adjusted to 1×10^4 cells/5 μl of medium. p The brain tumors were seeded by injecting the 9L cell suspensions into the frontal cerebral cortex of Fisher 344 rats that were purchased from Charles River Laboratories (Wilmington, Mass.) as follows. The rats were anesthetized with ketamine (80 mg/Kg, im) and Xylazine (13 mg/Kg), the head was immobilized in a stereotactic frame (David Kopf Instruments, Tujunga, Calif.) and the skull was exposed. A small hole was drilled in the skull 2 mm lateral and 2.5 mm anterior of the bregma, and 5 μl of the 9L gliosarcoma cell suspension were injected 3.5 mm into to cerebral cortex over a 5 min period using a 10 μl Hamilton (#2701) syringe attached to a 26 gauge needle. The hole was sealed with bone wax and the incisions were closed. […] The brains were removed and stored in 10% formalin. […]
Images of H&E stained sections containing tumor were captured using a SONY CCD camera using 2× objective. Using the AIS Image Analysis System (Imaging Research, St. Catherine, ON, Canada) software, the area of tumor in each section was manually outlined and measured in mm^2. […]

U251 human glioma cells = assay: U251 cell proliferation assay (cell counting); format: cell-based
Protocol: Culture Conditions: Cells were routinely maintained in DMEM (Invitrogen) supplemented with 10% heat-inactivated fetal bovine serum (FBS), penicillin (10 IU/ml), streptomycin (10 μg/ml) and 10% non-essential amino acids (all purchased from Invitrogen). Cells were maintained at 37° C. in a humidified incubator containing 5% CO2. They were grown in medium containing 10% FBS, which was then replaced with serum-free medium where U251 cells grow exponentially. Treatments were initiated one day after serum removal.
Cell Proliferation Assays: Proliferation studies were performed with cultures plated at a density that ensured exponential growth for at least 5 days. Growth medium was generally replaced by serum-free medium 24 hr after plating. Cells were treated with various concentrations of a given compounds for 24 or 48 hr as described in the Methods. […] Organic solvent never exceeded 0.1% of total culture volume. Cells were harvested by exposure to 0.05% trypsin/EDTA and counted using a hemocytometer.

20-HETE = 20-HETE formation in electrically stimulated skeletal (TA) muscle of rats; format: in vivo, rat
Protocol: Experimental protocols and tissue preparation: After a 24-h recovery period, the implanted stimulator was activated by momentary closure of the magnetic reed switch using a small hand-held magnet. […] Contractions of the extensor digitorum longus (EDL) and tibialis anterior (TA) muscles were automatically initiated at 9 AM each day and sustained for 8 h/day over a consecutive 7-day period. At the end of the stimulation period, the animals were euthanized by an overdose of pentobarbital sodium (100 mg/kg ip), and the EDL and TA muscles were harvested for analysis as previously described (Greene A S et al., Hypertension 15: 779-783, 1990; and Parmentier J H et al., Hypertension 37: 623-629, 2001).
The rats were divided in four groups. […] This dose was chosen based on our previous results (Kehl F et al., Am J Physiol Heart Circ Physiol 282: H1556-H1565, 2002).
To determine the contribution of VEGF to the angiogenesis induced by electrical stimulation, six rats in group 3 were treated with 3 mg/kg ip injections of a monoclonal VEGF-neutralizing antibody (Texas Biotechnology; Houston, Tex.) during the period of electrical stimulation. The protocol for administration of VEGF-neutralizing antibody was modified from Zheng W et al. (Circ Res 85: 192-198, 1999), and this dose was based on our previous results (Amaral S L et al., Microcirculation 8: 57-67, 2001). After the stimulation period was started, the rats received intraperitoneal injections on days 3, 5, and 7 (0.6 mg/100 g).
Muscle preparations for measurement of 20-HETE: The 100-200 mg of frozen TA muscle were homogenized in a solution containing 1 ml of acidified water and 50 μl of an internal standard, WIT-002, which was synthesized and kindly provided by Taisho Pharmaceutical. Ethyl acetate (3 ml, Fisher Scientific; Pittsburgh, Pa.) was added to the mixture and gently vortexed. The homogenized tissues were then centrifuged at 3,000 revolutions/min for 2 min. With the use of a glass Pasteur pipet, the top layer was removed and transferred to a sterile glass vial, and the samples were dried under nitrogen and stored at −80° C.
Labeling of samples and fluorescent detection of 20-HETE: Detection of 20-HETE was performed as previously described (Ma Y H et al., Am J Physiol Regul Integr Comp Physiol 267: R579-R589, 1994). Samples, which were extracted and dried under argon, were resuspended in 20 μl of acetonitrile containing 36.4 mM 2-(2,3-napthalimino)ethyl trifluoromethanesulfonate, and N,N-diisopropylethylamine (10 μl) was added as a catalyst. The sample was reacted for 30 min at room temperature, dried under argon, resuspended in 1 ml of 40% acetonitrile-water, and applied to a Sep-Pak Vac column. The column was washed with 6 ml of 50% acetonitrile-water solution to remove unreacted dye, eluted with 500 μl of ethyl acetate, dried under argon, and resuspended in 100 μl of the HPLC mobile phase [methanol-water-acetic acid, 82:18:0.1 (vol/vol)]. A 25-μl aliquot of the derivatized sample was separated on a 4.6×250-mm Symmetry C18 reverse-phase HPLC column (Waters) isocratically at a rate of 1.3 ml/min using methanol-water-acetic acid (82:18:0.1 (vol/vol)) as the mobile phase. Fluorescence intensity monitored using an in-line fluorescence detector (model number L-7480, Hitachi; Naperville, Ill.) at medium gain sensitivity. The amount of 20-HETE in the sample was determined by comparing the area of the 20-HETE peak with that of the internal standard (WIT-002).

CCCCc1ccc(N=CNO)c(C)c1 [HET0016, N-hydroxy-N′-(4-butyl-2 methylphenyl) formamidine]
reduction of the volume of the brain tumor compared to control animals (9L gliosarcoma tumors; 9L cells in rat forebrain, HET0016 10 mg/kg/day sc for 15 days, b179 prints 1 mg/Kg/day, ip, about 2 weeks): 80% | appearance of rats and tumor size at necropsy (9L gliosarcoma tumors; 17 days after implantation of the tumor): looked healthier; also recorded: much smaller tumor at necropsy | effect on EGF-induced proliferation of U251 cells (U251 human glioma cells; 200 ng/ml EGF + 10 μM HET0016, 48 hr): inhibited; also recorded: inhibits the effects of EGF | inhibition of proliferation of U251 cancer cells (FIG. 17) (U251 human glioma cells; 96-well plates, HET0016 for 48 hrs): about 50% | inhibition at 10 µM (U251 human glioma cells; Homo sapiens, U-251, 48 h): ~60% | concentration dependence of inhibition of U251 proliferation (U251 human glioma cells; various concentrations): suppressed by HET0016 in a concentration-dependent manner | effect on the increase of 20-HETE formation induced by electrical stimulation (20-HETE; 7 days of electrical stimulation, chronic treatment): completely blocked | 20-HETE formation in skeletal muscle, unstimulated side (20-HETE; rats treated 7 days, TA muscle): 110.26±28.36 ng/g muscle | 20-HETE formation in skeletal muscle, stimulated side (20-HETE; rats treated 7 days, TA muscle, 7 days electrical stimulation): 102.1±22.3 ng/g muscle | effect on basal formation of 20-HETE in skeletal muscle (20-HETE; treatment for 7 days): did not change the basal formation
